Values quoted from earlier work as cited in patent publication US20240350583A1, “COMPOSITION FOR PREVENTING OR TREATING FIBROTIC DISEASES, COMPRISING HAPLN1” (Chung Ang University Industry Academic Cooperation …, priority 2021, published 2024).

Tested on: bleomycin-induced pulmonary fibrosis
Conditions: group treated with prednisolone (Oku et al.); cited from earlier work

Structure (SMILES): C[C@]12C=CC(=O)C=C1CC[C@@H]1[C@@H]2[C@@H](O)C[C@@]2(C)[C@H]1CC[C@]2(O)C(=O)CO [prednisolone]
- level of TGFβ1, a measure of anti-fibrotic efficacy: no decrease
- levels of inflammation-related biomarkers: decreased
